Laboratory results from patent US20020137929A1, “1 - (3-heterocyclylphenyl) isothiourea, -isourea, -guanidine and -amidine herbicidal agents” (Intellectual Property Department, BASF Aktiengesellschaft, priority 1998, published 2002).

Assays:
[1] = tested on: IPOHE (Morningglory, Ivyleaf); assay: Preemergence herbicidal evaluation; format: in vivo, Ipomoea hederacea; details: preemergence, rated 4-5 weeks after treatment, 0-9 scale
Procedure, shortened: (§1)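 Sown cups got a single aqueous acetone spray of test compound (roughly 0.0156–0.500 kg/ha) before seedlings emerged. Evaluation, 4–5 weeks on, used a 0–9 visual scale covering plant stand, vigor, size, malformation, chlorosis and general appearance compared with controls.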

ABUTH (Velvetleaf) [2] = assay: Preemergence herbicidal evaluation; format: in vivo, Abutilon theophrasti; details: preemergence, rated 4-5 weeks after treatment, 0-9 scale
Procedure, shortened: as §1

[3] = tested on: ECHORC (Watergrass (Calif.)); assay: Preemergence weed control under flooded paddy conditions; format: in vivo, Echinochloa oryzoides; details: rated 3-4 weeks after treatment
Procedure, shortened: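 Herbicidal effect is scored visually on a 0-9 scale against an untreated control, three to four weeks after compounds are pipetted into the flood water (1.5 to 3 cm deep) over seeds planted in silt loam at 0.5 cm depth. Rates: about 0.0313 to 0.500 kg/ha.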

SETVI (Foxtail, Green) = assay: Postemergence herbicidal evaluation; format: in vivo, Setaria viridis; details: postemergence
Procedure, shortened: (§2)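 Rate range approx. 0.0156–0.500 kg/ha. Foliar application at 40 psi to ~2-week seedlings; surfactant 0.5% TWEEN 20 in 50/50 acetone/water. Evaluation 4–5 wk post-treatment by 0–9 visual injury score, means of replicate tests.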

AMBEL (Ragweed, Common) = assay: Preemergence herbicidal evaluation; format: in vivo, Ambrosia artemisifolia; details: preemergence, rated 4-5 weeks after treatment, 0-9 scale
Procedure, shortened: as §1

[4] = tested on: GLXMAW (Soybean, Williams); assay: Postemergence herbicidal evaluation; format: in vivo, Glycine max, (L.) Merr. cv Williams; details: postemergence
Procedure, shortened: as §2

[5] = tested on: ECHORC (Watergrass (Calif.)); assay: Postemergence weed control under flooded paddy conditions; format: in vivo, Echinochloa oryzoides; details: postemergence weeds, rated 3 to 4 weeks after treatment
Procedure, shortened: (§3)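 Flood-water application, about 0.0313–0.500 kg/ha a.i. in aqueous/acetone 50/50 v/v; water depth 1.5–3 cm throughout. Weeds 3–5 cm, rice 1.5–2.5 leaf. Greenhouse; 0–9 visual rating vs control at 3–4 wk.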

ABUTH (Velvetleaf) [6] = assay: Postemergence herbicidal evaluation; format: in vivo, Abutilon theophrasti; details: postemergence
Procedure, shortened: as §2

[7] = tested on: IPOHE (Morningglory, Ivyleaf); assay: Postemergence herbicidal evaluation; format: in vivo, Ipomoea hederacea; details: postemergence
Procedure, shortened: as §2

ZEAMX (Corn, Field) = assay: Postemergence herbicidal evaluation; format: in vivo, Zea mays; details: postemergence
Procedure, shortened: as §2

CYPIR (Rice Flatsedge) = assay: Postemergence weed control under flooded paddy conditions; format: in vivo, Cyperus iria; details: postemergence weeds, rated 3 to 4 weeks after treatment
Procedure, shortened: as §3

CASOB (Sicklepod) = assay: Preemergence herbicidal evaluation; format: in vivo, Cassia obtusifolia; details: preemergence, rated 4-5 weeks after treatment, 0-9 scale
Procedure, shortened: as §1

CYPSE (Flatsedge) = assay: Preemergence weed control under flooded paddy conditions; format: in vivo, Cyperus serotinus; details: rated 3-4 weeks after treatment
Procedure, shortened: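 Visual injury scored 0-9 against control three to four weeks post-treatment, greenhouse-grown. Application: acetone/water (50/50) solutions dosed directly into flood water (1.5-3 cm over silt loam, planted top 0.5 cm), roughly 0.0313 to 0.500 kg/ha active ingredient.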

ECHCG (Barnyardgrass) = assay: Preemergence herbicidal evaluation; format: in vivo, Echinochloa crus-galli; details: preemergence, rated 4-5 weeks after treatment, 0-9 scale
Procedure, shortened: as §1

CCOC(=O)CN1C(=O)C(CC(=O)OC(C)C(=O)OCC)S/C1=N/c1cc(-n2c(=O)cc(C(F)(F)F)n(C)c2=O)c(F)cc1Cl (stereo not drawn) [Compound 87]
3.0: ABUTH rating (ABUTH (Velvetleaf) [2]; 0.1250 kg/ha) | ECHORC herbicidal effect rating ([3]; 0.2500 kg/ha) | ECHORC herbicidal effect rating ([3]; 0.5000 kg/ha) | Herbicidal rating ECHORC ([5]; Rate 0.2500 kg/ha) | Herbicidal rating ECHORC ([5]; Rate 0.5000 kg/ha)
4.0: ABUTH herbicidal rating (ABUTH (Velvetleaf) [6]; rate 0.0313 kg/ha) | ZEAMX herbicidal rating (ZEAMX (Corn, Field); rate 0.0156 kg/ha)
7.5: GLXMAW herbicidal rating ([4]; rate 0.0625 kg/ha) | ZEAMX herbicidal rating (ZEAMX (Corn, Field); rate 0.1250 kg/ha)
7.0: SETVI herbicidal rating (SETVI (Foxtail, Green); rate 0.1250 kg/ha) | SETVI herbicidal rating (SETVI (Foxtail, Green); rate 0.2500 kg/ha) | Herbicidal rating CYPIR (CYPIR (Rice Flatsedge); Rate 0.5000 kg/ha)
1.0: IPOHE rating ([1]; 0.1250 kg/ha)
9.0: ABUTH rating (ABUTH (Velvetleaf) [2]; 0.2500 kg/ha) | ABUTH rating (ABUTH (Velvetleaf) [2]; 0.5000 kg/ha) | AMBEL rating (AMBEL (Ragweed, Common); 0.5000 kg/ha) | GLXMAW herbicidal rating ([4]; rate 0.2500 kg/ha) | ABUTH herbicidal rating (ABUTH (Velvetleaf) [6]; rate 0.0625 kg/ha) | ABUTH herbicidal rating (ABUTH (Velvetleaf) [6]; rate 0.1250 kg/ha) | ABUTH herbicidal rating (ABUTH (Velvetleaf) [6]; rate 0.2500 kg/ha) | IPOHE herbicidal rating ([7]; rate 0.0156 kg/ha) | IPOHE herbicidal rating ([7]; rate 0.0313 kg/ha) | IPOHE herbicidal rating ([7]; rate 0.0625 kg/ha) | IPOHE herbicidal rating ([7]; rate 0.1250 kg/ha) | IPOHE herbicidal rating ([7]; rate 0.2500 kg/ha)
2.0: ECHORC herbicidal effect rating ([3]; 0.1250 kg/ha) | SETVI herbicidal rating (SETVI (Foxtail, Green); rate 0.0625 kg/ha) | Herbicidal rating ECHORC ([5]; Rate 0.1250 kg/ha) | ABUTH herbicidal rating (ABUTH (Velvetleaf) [6]; rate 0.0156 kg/ha) | CASOB rating (CASOB (Sicklepod); 0.5000 kg/ha)
6.0: IPOHE rating ([1]; 0.5000 kg/ha)
5.0: IPOHE rating ([1]; 0.2500 kg/ha) | Herbicidal rating CYPIR (CYPIR (Rice Flatsedge); Rate 0.0313 kg/ha) | Herbicidal rating CYPIR (CYPIR (Rice Flatsedge); Rate 0.0625 kg/ha) | Herbicidal rating CYPIR (CYPIR (Rice Flatsedge); Rate 0.1250 kg/ha) | Herbicidal rating CYPIR (CYPIR (Rice Flatsedge); Rate 0.2500 kg/ha) | CYPSE herbicidal effect rating (CYPSE (Flatsedge); 0.1250 kg/ha) | CYPSE herbicidal effect rating (CYPSE (Flatsedge); 0.2500 kg/ha) | CYPSE herbicidal effect rating (CYPSE (Flatsedge); 0.5000 kg/ha)
4.5: GLXMAW herbicidal rating ([4]; rate 0.0156 kg/ha) | ZEAMX herbicidal rating (ZEAMX (Corn, Field); rate 0.0313 kg/ha)
5.5: GLXMAW herbicidal rating ([4]; rate 0.0313 kg/ha) | ZEAMX herbicidal rating (ZEAMX (Corn, Field); rate 0.0625 kg/ha)
8.0: GLXMAW herbicidal rating ([4]; rate 0.1250 kg/ha) | ZEAMX herbicidal rating (ZEAMX (Corn, Field); rate 0.2500 kg/ha)
0.0: ECHORC herbicidal effect rating ([3]; 0.0313 kg/ha) | ECHORC herbicidal effect rating ([3]; 0.0625 kg/ha) | SETVI herbicidal rating (SETVI (Foxtail, Green); rate 0.0156 kg/ha) | SETVI herbicidal rating (SETVI (Foxtail, Green); rate 0.0313 kg/ha) | AMBEL rating (AMBEL (Ragweed, Common); 0.1250 kg/ha) | AMBEL rating (AMBEL (Ragweed, Common); 0.2500 kg/ha) | Herbicidal rating ECHORC ([5]; Rate 0.0313 kg/ha) | Herbicidal rating ECHORC ([5]; Rate 0.0625 kg/ha) | CASOB rating (CASOB (Sicklepod); 0.1250 kg/ha) | CASOB rating (CASOB (Sicklepod); 0.2500 kg/ha) | CYPSE herbicidal effect rating (CYPSE (Flatsedge); 0.0313 kg/ha) | CYPSE herbicidal effect rating (CYPSE (Flatsedge); 0.0625 kg/ha) | ECHCG rating (ECHCG (Barnyardgrass); 0.1250 kg/ha) | ECHCG rating (ECHCG (Barnyardgrass); 0.2500 kg/ha) | ECHCG rating (ECHCG (Barnyardgrass); 0.5000 kg/ha)

CN1C(=O)C(CC(=O)NS(C)(=O)=O)SC1=Nc1cc(-n2c(=O)cc(C(F)(F)F)n(C)c2=O)c(F)cc1Cl (stereo not drawn) [Compound 97, 2-{{2-Chloro-5-[3,6-dihydro-3-methyl-2,6-dioxo-4-(trifluoromethyl)-1(2H)-pyrimidinyl]-4-fluorophenyl}imino}-3-methyl-N-(methylsulfonyl)-4-oxo-5-thiazolidineacetamide]
4.5: GLXMAW herbicidal rating ([4]; rate 0.0156 kg/ha)
7.0: ABUTH herbicidal rating (ABUTH (Velvetleaf) [6]; rate 0.0625 kg/ha) | IPOHE herbicidal rating ([7]; rate 0.0156 kg/ha)
6.0: SETVI herbicidal rating (SETVI (Foxtail, Green); rate 0.0313 kg/ha)
4.0: ABUTH rating (ABUTH (Velvetleaf) [2]; 0.1250 kg/ha) | AMBEL rating (AMBEL (Ragweed, Common); 0.2500 kg/ha) | AMBEL rating (AMBEL (Ragweed, Common); 0.5000 kg/ha) | GLXMAW herbicidal rating ([4]; rate 0.0313 kg/ha) | ABUTH herbicidal rating (ABUTH (Velvetleaf) [6]; rate 0.0156 kg/ha) | ABUTH herbicidal rating (ABUTH (Velvetleaf) [6]; rate 0.0313 kg/ha) | ZEAMX herbicidal rating (ZEAMX (Corn, Field); rate 0.0313 kg/ha) | ZEAMX herbicidal rating (ZEAMX (Corn, Field); rate 0.0625 kg/ha) | Herbicidal rating CYPIR (CYPIR (Rice Flatsedge); Rate 0.2500 kg/ha)
6.5: GLXMAW herbicidal rating ([4]; rate 0.1250 kg/ha)
1.0: IPOHE rating ([1]; 0.1250 kg/ha) | SETVI herbicidal rating (SETVI (Foxtail, Green); rate 0.0156 kg/ha) | CASOB rating (CASOB (Sicklepod); 0.2500 kg/ha)
5.0: ZEAMX herbicidal rating (ZEAMX (Corn, Field); rate 0.1250 kg/ha)
3.0: ECHORC herbicidal effect rating ([3]; 0.2500 kg/ha) | Herbicidal rating ECHORC ([5]; Rate 0.2500 kg/ha) | Herbicidal rating CYPIR (CYPIR (Rice Flatsedge); Rate 0.1250 kg/ha) | CASOB rating (CASOB (Sicklepod); 0.5000 kg/ha) | CYPSE herbicidal effect rating (CYPSE (Flatsedge); 0.2500 kg/ha)
3.5: ZEAMX herbicidal rating (ZEAMX (Corn, Field); rate 0.0156 kg/ha)
9.0: IPOHE rating ([1]; 0.2500 kg/ha) | IPOHE rating ([1]; 0.5000 kg/ha) | ABUTH rating (ABUTH (Velvetleaf) [2]; 0.2500 kg/ha) | ABUTH rating (ABUTH (Velvetleaf) [2]; 0.5000 kg/ha) | SETVI herbicidal rating (SETVI (Foxtail, Green); rate 0.0625 kg/ha) | SETVI herbicidal rating (SETVI (Foxtail, Green); rate 0.1250 kg/ha) | ABUTH herbicidal rating (ABUTH (Velvetleaf) [6]; rate 0.1250 kg/ha) | IPOHE herbicidal rating ([7]; rate 0.0313 kg/ha) | IPOHE herbicidal rating ([7]; rate 0.0625 kg/ha) | IPOHE herbicidal rating ([7]; rate 0.1250 kg/ha)
2.0: ECHORC herbicidal effect rating ([3]; 0.1250 kg/ha) | Herbicidal rating ECHORC ([5]; Rate 0.1250 kg/ha)
5.5: GLXMAW herbicidal rating ([4]; rate 0.0625 kg/ha)
0.0: ECHORC herbicidal effect rating ([3]; 0.0313 kg/ha) | ECHORC herbicidal effect rating ([3]; 0.0625 kg/ha) | AMBEL rating (AMBEL (Ragweed, Common); 0.1250 kg/ha) | Herbicidal rating ECHORC ([5]; Rate 0.0313 kg/ha) | Herbicidal rating ECHORC ([5]; Rate 0.0625 kg/ha) | Herbicidal rating CYPIR (CYPIR (Rice Flatsedge); Rate 0.0313 kg/ha) | Herbicidal rating CYPIR (CYPIR (Rice Flatsedge); Rate 0.0625 kg/ha) | CASOB rating (CASOB (Sicklepod); 0.1250 kg/ha) | CYPSE herbicidal effect rating (CYPSE (Flatsedge); 0.0313 kg/ha) | CYPSE herbicidal effect rating (CYPSE (Flatsedge); 0.0625 kg/ha) | CYPSE herbicidal effect rating (CYPSE (Flatsedge); 0.1250 kg/ha) | ECHCG rating (ECHCG (Barnyardgrass); 0.1250 kg/ha) | ECHCG rating (ECHCG (Barnyardgrass); 0.2500 kg/ha) | ECHCG rating (ECHCG (Barnyardgrass); 0.5000 kg/ha)
